Measurements as given in patent US20120172438A1, “GLYCYRRHETINIC ACID ESTER DERIVATIVE SYNTHESIS METHOD AND DEOXOGLYCYRRHETINIC ACID ESTER COMPOUND” (priority 2009, published 2012).

Assays:
[1] = tested on: carrageenan-induced rat paw edema; assay: Carrageenan-induced rat paw swelling; format: in vivo, male SD rats; conditions: 10 mg/kg gastric infusion
Description: Rat paw edema was induced by injecting carrageenan, and we observed the swelling to evaluate the anti-inflammatory effect. Wherein:
• Animals: male SD rats, 150-180 g; • Inflammatory Agent: carrageenan; • Test Medicine: ethyl 11-deoxy-18α-glycyrrhetinate was dissolved in 1% CMC-Na to get the desired concentration; • Positive Control Medicine: indomethacin was dissolved in 1% CMC-Na to get the desired concentration;
50 rats were randomly divided into 5 groups of 10 rats in each group: the model group, positive control group (administering indomethacin 10 mg/kg), various doses of the test medicine groups (30, 60, 120 mg/kg). The animals in each group were administered continuously for 3 days. Before the last administration, the volumes of the left hind feet of the rats were measured by micropipette method. Then the animals were administered the test medicines or CMC-Na by gastric infusion. 1 hour later, freshly prepared carrageenan was injected subcutaneously into left hind feet of the rats according to the dosage of 0.05 ml/paw by using a 0.25 ml syringe and NO. 4 needle. The volume of left hind feet of the rats was measured by the method mentioned above at time points of 1, 3, 4, 5 and 7 hours after administration, each point 2 times, and the average values were calculated. The difference of these values between before and after inflammation was called swelling degree.
Data was presented as x±s. T test of the average of two samples was used to compare the experimental data of each group. P<0.05 or P<0.01 was regarded to be statistically significant.

[2] = tested on: acetaminophen induced liver injury; assay: Acetaminophen induced liver injury in mice; format: in vivo; conditions: 5.85 mg/kg gastric infusion, 10 days
Description: Ethyl 11-deoxy-18α-glycyrrhetinate: provided by traditional Chinese medicine laboratory, R&D center of Jiangsu Chia Tai Tianqing Pharmaceutical Co., Ltd. Bifendate pills: produced by Beijing Union Pharmaceutical factory. Daily dosage of human is 45 mg, used as the positive control medicine. Acetaminophen: produced by Jinzhou biochemical pharmaceutical factory. All medicines were prepared to desired concentrations with physiological saline according to the requirement of experiment. AST, ALT Kit: product of Nanjing Jiancheng bioengineering research institute.
60 mice were randomly divided into 6 groups: the normal control group, Bifendate group (positive medicine group), model control group, various doses of ethyl 11-deoxy-18α-glycyrrhetinate groups (240, 120, 60 mg/kg). After the animals were adaptively fed for 3 days, animals in each group were administered the medicines by gastric infusion for 10 days (one time/day). Animals in the normal control group and model group were administered 0.2 ml/mouse of physiological saline. 6 hours after the last administration, animals in each group, except the animals in normal control group, were intraperitoneally injected 400 mg kg-1 acetaminophen. After 12 hours, blood was taken by orbital bleeding. Activities of alanine aminotransferase (ALT), aspartate aminotransferase (AST) were measured. And T test of groups was performed, see table 7;

[3] = tested on: BCG + LPS induced liver injury; assay: BCG+LPS induced liver injury in mice; format: in vivo, Kunming mice; conditions: 5.85 mg/kg gastric infusion, 7 days

Structure (SMILES)	Swelling degree of the feet after inflammation ([1]; 1 h) [mL]	Swelling degree of the feet after inflammation ([1]; 3 h) [mL]	Swelling degree of the feet after inflammation ([1]; 4 h) [mL]	Swelling degree of the feet after inflammation ([1]; 5 h) [mL]	Swelling degree of the feet after inflammation ([1]; 7 h) [mL]	ALT [2] [U/L]	AST [2] [U/L]	ALT [3] [U/L]	AST [3] [U/L]
COc1ccc2c(c1)c(CC(=O)O)c(C)n2C(=O)c1ccc(Cl)cc1 [Indomethacin, indomethacin, reference compound]	0.13 ± 0.05	0.17 ± 0.07	0.24 ± 0.09	0.22 ± 0.06	0.16 ± 0.05				
COC(=O)c1cc(OC)c2c(c1-c1c(C(=O)OC)cc(OC)c3c1OCO3)OCO2 [Bifendate, reference compound]						134.6 ± 12.9	162.3 ± 31.7	110.5 ± 11.9	152.3 ± 41.6
